Experimental data as given in patent US12723024B2 (priority 2021, dated 2026).
Where a name gives a salt, the structure may show the parent alone. Read-outs that look alike come from different tables or passages of the source.

How the values were obtained:
[1] = Salt screening (slurry crystallization); format: physicochemical; design: key to Salt screening result: (+) shows that a crystalline salt was formed; (−) physical mixtures; settings: for Polymorph obtained in salt screening: XRPD; for Salt screening result: slurry 50° C. then 25° C.
Experimental: About 45 mg was added to a suitable solvent and different equivalents of acids were added under stirring at 50° C. for about 2 hours and then at 25° C. for at least 32 hours. Ethanol, acetone, and ACN were used as screening solvents. When no precipitation was obtained or only a few solids were obtained, the solutions were placed at 5° C. for crystallization.
(§1) Obtained suspensions were taken out and centrifuged. Solids obtained was analysed by XRPD. Salts with high or medium crystallinity were further characterized (see Table 5).

[2] = Crystallinity by XRPD; format: physicochemical; settings: salt screening sample
Experimental: as §1
(§2) According to the salt screening results (see Table 4), totally 19 potential salt hits were identified. All the potential salt hits were further investigated by Differential Scanning Calorimetry (DSC), Thermogravimetric analysis (TGA), H-NMR, Ion chromatography (IC), Karl Fischer titration (KF), and Polarized Light Microscopy (PLM) to confirm their identity and evaluate their physicochemical properties as shown in Table 5 below.

[3] = Thermogravimetric analysis (TGA) weight loss; format: physicochemical; settings: salt screening sample, at the temperature given (80-200° C.)
From the text: as §2

[4] = format: physicochemical; settings: salt screening sample
From the text: as §2

[5] = Hygroscopicity (water uptake) of salt hits; format: physicochemical; settings: salt screening sample; for Hygroscopicity: grade in words
From the text: as §2

[6] = Solubility of diastereomeric salts in solvents; format: physicochemical; settings: 20 °C, read-out: Solubility @ 20-30° C.
From the text: Thus, in another highly preferred embodiment, DCM is used in step c).

[7] = organic solvent or mixture, in Acetone
[8] = organic solvent or mixture, in DCM
[9] = organic solvent or mixture, in EtOAc
[10] = organic solvent or mixture, in EtOH
[11] = organic solvent or mixture, in Heptane
[12] = organic solvent or mixture, in IPA
[13] = organic solvent or mixture, in IPAC
[14] = organic solvent or mixture, in MEK
[15] = organic solvent or mixture, in MTBE
[16] = organic solvent or mixture, in MeOH
[17] = organic solvent or mixture, in THF
[18] = organic solvent or mixture, in Toluene

Row | Compound | Polymorph obtained in salt screening ([1]; ACN) | Salt screening result ([1]; ACN) | Salt screening result ([1]; Acetone) | Polymorph obtained in salt screening ([1]; EtOH) | Salt screening result ([1]; EtOH) | Crystallinity [2] | Weight loss (%) [3] [%] | Water content (% w/w) [4] [% w/w] | Polymorph obtained in salt screening ([1]; Acetone) | also measured
1 | Glutamic acid | Polymorph C | + | + | Polymorph A | + |  |  |  |  | 
2 | COc1cc(C(F)(F)F)c(OC)cc1[C@@H]1CCCNC1.C[C@H](O)C(=O)O [L-lactate salt Polymorph A] | Polymorph A | + | Thin suspension |  | Clear solution | High | 4.9 | 5.1 |  | Hygroscopicity [5]: None
3 | COc1cc(C(F)(F)F)c(OC)cc1[C@@H]1CCCNC1.COc1cc(C(F)(F)F)c(OC)cc1[C@@H]1CCCNC1.O=C(O)/C=C/C(=O)O [Hemi-fumarate salt Polymorph B] |  |  |  |  |  | Medium | 9.4 | 9.3 |  | 
4 | COc1cc(C(F)(F)F)c(OC)cc1[C@@H]1CCCNC1.O=S(=O)(O)O [Sulfate salt Polymorph A] | Polymorph A | + | + | Polymorph A | + | High | 8.2 |  | Polymorph A | 
5 | COc1cc(C(F)(F)F)c(OC)cc1[C@@H]1CCCNC1.COc1cc(C(F)(F)F)c(OC)cc1[C@@H]1CCCNC1.O=C(O)/C=C/C(=O)O [Hemi-fumarate salt Polymorph A] |  |  |  |  |  | Medium | 4.8 | 5.5 |  | 
6 | COc1cc(C(F)(F)F)c(OC)cc1[C@@H]1CCCNC1 [drawing 39, (−)-Di-p-anisoyl-L-tartaric acid salt of (S)-3-(2,5-dimethoxy-4-(trifluoromethyl)phenyl)piperidine (1:1)] |  |  |  |  |  |  |  |  |  | solubility ([6]; organic solvent or mixture, in 2-MeTHF): 50000 µg/mL; solubility ([6]; organic solvent or mixture, in ACN): 12000 µg/mL; solubility [6, 7]: < 10000 µg/mL; solubility [6, 8]: < 10000 µg/mL; solubility [6, 9]: < 10000 µg/mL; solubility [6, 10]: 12000 µg/mL; solubility [6, 11]: < 10000 µg/mL; solubility [6, 12]: < 10000 µg/mL; solubility [6, 13]: < 10000 µg/mL; solubility [6, 14]: < 10000 µg/mL; solubility [6, 15]: < 10000 µg/mL; solubility [6, 16]: 30000 µg/mL; solubility [6, 17]: 50000 µg/mL; solubility [6, 18]: < 10000 µg/mL; solubility ([6]; in Water): < 5000 µg/mL
7 | COc1cc(C(F)(F)F)c(OC)cc1[C@@H]1CCCNC1.O=P(O)(O)O [Phosphate salt Polymorph A] |  | Hazy solution | + |  | Clear solution | Medium | 0.7 |  | Polymorph A | 
8 | COc1cc(C(F)(F)F)c(OC)cc1[C@@H]1CCCNC1.COc1cc(C(F)(F)F)c(OC)cc1[C@@H]1CCCNC1.O=C(O)C(O)C(O)C(=O)O [Hemi L-tartrate salt Polymorph A] | Polymorph A | + | + | Polymorph A | + | Medium | 4.0 |  | Polymorph A | 
9 | COc1cc(C(F)(F)F)c(OC)cc1[C@@H]1CCCNC1.O=C(O)/C=C/C(=O)O [Mono-fumarate salt Polymorph C] | Polymorph C | + | + | Polymorph C | + | Medium | 0.6 |  | Polymorph C | Hygroscopicity (water uptake % w/w) [5]: (~0.2%) % w/w
10 | COc1cc(C(F)(F)F)c(OC)cc1[C@@H]1CCCNC1.N[C@@H](CCC(=O)O)C(=O)O [L-glutamate salt Polymorph C] |  |  |  |  |  | High | 6.3 | 8.7 |  | 
11 | CC(=O)O.COc1cc(C(F)(F)F)c(OC)cc1[C@@H]1CCCNC1 [Acetate salt Polymorph A] | Polymorph A | + | + |  | Clear solution | High | 0.2 |  | Polymorph A | Hygroscopicity [5]: None
12 | COc1cc(C(F)(F)F)c(OC)cc1[C@@H]1CCCNC1.COc1cc(C(F)(F)F)c(OC)cc1[C@@H]1CCCNC1.O=C(O)CCC(=O)O [Hemi-succinate salt Polymorph B] | Polymorph A | + | + | Polymorph A | + | Medium | 4.8 |  | Polymorph A | Hygroscopicity (water uptake % w/w) [5]: (~1.8%) % w/w; Hygroscopicity [5]: Hygroscopic
13 | COc1cc(C(F)(F)F)c(OC)cc1[C@H]1CCCNC1 [(−)-Di-p-anisoyl-L-tartaric acid salt of (R)-3-(2,5-dimethoxy-4-(trifluoromethyl)phenyl)piperidine (1:1)] |  |  |  |  |  |  |  |  |  | solubility [6, 7]: < 10000 µg/mL; solubility [6, 8]: > 400000 µg/mL; solubility [6, 9]: < 10000 µg/mL; solubility [6, 10]: 25000 µg/mL; solubility [6, 11]: < 10000 µg/mL; solubility [6, 12]: < 10000 µg/mL; solubility [6, 13]: < 10000 µg/mL; solubility [6, 14]: < 10000 µg/mL; solubility [6, 15]: < 10000 µg/mL; solubility [6, 16]: 40000 µg/mL; solubility [6, 17]: 45000 µg/mL; solubility [6, 18]: < 10000 µg/mL; solubility ([6]; in Water): < 5000 µg/mL
14 | COc1cc(C(F)(F)F)c(OC)cc1[C@@H]1CCCNC1.N[C@@H](CCC(=O)O)C(=O)O [L-glutamate salt Polymorph B] |  |  |  |  |  | Medium | 6.6 | 6.9 |  | 
15 | COc1cc(C(F)(F)F)c(OC)cc1[C@@H]1CCCNC1.N[C@@H](CCC(=O)O)C(=O)O [L-glutamate salt Polymorph A] |  |  |  |  |  | Low | 4.8 | 8.6 |  | 
16 | Gentisic acid |  | Clear solution | Clear solution |  | Clear solution |  |  |  |  | 
17 | COc1cc(C(F)(F)F)c(OC)cc1[C@@H]1CCCNC1.C[C@@H](O)C(=O)O [D-lactate salt Polymorph A] |  | Clear solution | Thin suspension | Polymorph A | + | High |  |  |  | 
18 | COc1cc(C(F)(F)F)c(OC)cc1[C@@H]1CCCNC1.O=C(O)C[C@H](O)C(=O)O [L-malate salt Polymorph A] | Polymorph A | + | + | Polymorph A | + | High | 2.3 | 5.9 | Polymorph A | Hygroscopicity (water uptake % w/w) [5]: (~0.3%) % w/w
19 | Citric acid |  | Clear solution | Clear solution |  | Clear solution |  |  |  |  | 
20 | COc1cc(C(F)(F)F)c(OC)cc1[C@@H]1CCCNC1.N[C@@H](CC(=O)O)C(=O)O [L-aspartate salt Polymorph A] | Polymorph A | + | − | Polymorph A | + | High | 3.9 | 7.0 |  | Hygroscopicity (water uptake % w/w) [5]: (~4.3%) % w/w; Hygroscopicity [5]: Hygroscopic
